Reference: US8946142B2, “Beta-arrestin effectors and compositions and methods of use thereof” (Trevena, Inc., priority 2012, dated 2015)
Where a SMILES comes first, the peptide text is derived from it. [ ]: non-standard residue; d: D form. Tle = CC(C)(C)[C@H](N)C(=O)O; Ac6c = NC1(C(=O)O)CCCCC1; Sar = CNCC(=O)O

Assays:
Type in all cases: cell-based
[1] = biological target: T1, human AT1R (Homo sapiens, UniProt P30556); assay: beta-arrestin2 recruitment assay (PathHunter), human AT1R; settings: for Emax: 1 h, read-out: Span (relative to hAngII)
T1 sequence (P30556 1-359): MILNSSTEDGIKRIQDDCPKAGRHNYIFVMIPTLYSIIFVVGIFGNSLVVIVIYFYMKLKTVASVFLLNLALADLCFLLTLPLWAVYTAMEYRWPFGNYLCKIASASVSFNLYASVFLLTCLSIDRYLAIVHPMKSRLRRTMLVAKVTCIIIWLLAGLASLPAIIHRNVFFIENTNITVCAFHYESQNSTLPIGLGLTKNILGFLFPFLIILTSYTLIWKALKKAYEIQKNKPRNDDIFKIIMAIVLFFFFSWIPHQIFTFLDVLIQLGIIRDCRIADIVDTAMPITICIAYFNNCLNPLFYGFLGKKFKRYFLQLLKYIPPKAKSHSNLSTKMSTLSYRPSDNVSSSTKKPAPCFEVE
In short: (§1)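 PathHunter enzyme-complementation assay in HEK293 cells stably expressing ProLink-tagged human AT1R or rat AT1aR; peptides (final 100 μM–1 pM) in HBSS/20 mM HEPES for 60 min at 37 °C. Detection reagent 60 min at room temperature; β-arrestin-2 recruitment read as relative luminescence.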

[2] = biological target: T2, rat AT1aR (Rattus norvegicus, UniProt P25095); assay: IP1 accumulation assay (IP1 G-protein assay), rat AT1aR; settings: for Emax: read-out: Span (relative to hAngII)
T2 sequence (P25095 1-359): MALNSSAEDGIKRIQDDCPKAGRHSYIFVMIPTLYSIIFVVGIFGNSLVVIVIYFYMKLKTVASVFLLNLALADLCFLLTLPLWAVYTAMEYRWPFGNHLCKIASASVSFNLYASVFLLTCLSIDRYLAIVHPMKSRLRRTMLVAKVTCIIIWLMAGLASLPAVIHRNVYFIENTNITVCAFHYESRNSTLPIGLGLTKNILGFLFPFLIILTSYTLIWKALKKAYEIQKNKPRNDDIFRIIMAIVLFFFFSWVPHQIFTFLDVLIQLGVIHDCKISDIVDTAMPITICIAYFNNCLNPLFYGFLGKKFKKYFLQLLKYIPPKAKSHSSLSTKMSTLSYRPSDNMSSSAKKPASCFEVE

[3] = biological target: T1, human AT1R; assay: IP1 accumulation assay (IP1 G-protein assay), human AT1R; settings: for Emax: read-out: Span (relative to hAngII)
[4] = biological target: T2, rat AT1aR; assay: beta-arrestin2 recruitment assay (PathHunter), rat AT1aR; settings: for Emax: 1 h, read-out: Span (relative to hAngII)
In short: as §1

Row | SMILES | Emax [1] | EC50 ([1]; read-out: EC50) | EC50 ([1]; read-out: pEC50 (converted)) | EC50 ([2]; read-out: EC50) | Emax [2] | EC50 ([2]; read-out: pEC50 (converted)) | EC50 ([3]; read-out: EC50) | Emax [3] | EC50 ([3]; read-out: pEC50 (converted)) | Emax [4] | EC50 ([4]; read-out: EC50) | EC50 ([4]; read-out: pEC50 (converted)) | EC50 (nM) [2] | pEC50 [2] | EC50 (nM) [3] | pEC50 [3]
1 | CNCC(=O)N[C@@H](CCCNC(=N)N)C(=O)N[C@H](C(=O)N[C@@H](Cc1ccc(O)cc1)C(=O)NC1(C(=O)N[C@@H](Cc2c[nH]cn2)C(=O)N2CCC[C@H]2C(=O)N[C@@H](Cc2ccc(O)cc2)C(=O)O)CCCCC1)C(C)C [SEQ ID NO: 55, Sar-Arg-Val-Tyr-cyHex-His-Pro-Tyr] (H-[Sar]RVY[Ac6c]HPY-OH) | < 101% | > 3.2 nM | > 3.16 nM | > 0.6 nM | < 104% | > 0.631 nM | > 1.3 nM | < 103% | > 0.631 nM | < 105% | > 3.2 nM | > 3.16 nM | – | – | – | –
2 | CNCC(=O)N[C@@H](CCCNC(=N)N)C(=O)N[C@H](C(=O)N[C@@H](Cc1ccc(O)cc1)C(=O)NC1(C(=O)N[C@@H](Cc2c[nH]cn2)C(=O)N2CCC[C@H]2C(=O)N[C@H](C(=O)O)C(C)(C)C)CCCCC1)C(C)C [SEQ ID NO: 56, Sar-Arg-Val-Tyr-cyHex-His-Pro-AA02] (H-[Sar]RVY[Ac6c]HP[Tle]-OH) | < 101% | > 3.2 nM | > 3.16 nM | > 0.6 nM | < 104% | > 0.631 nM | > 1.3 nM | < 103% | > 0.631 nM | < 105% | > 3.2 nM | > 3.16 nM | – | – | – | –
3 | CNCC(=O)N[C@@H](CCCNC(=N)N)C(=O)N[C@H](C(=O)N[C@@H](Cc1ccc(O)cc1)C(=O)NC1(C(=O)N[C@@H](Cc2c[nH]cn2)C(=O)N2CCC[C@H]2C(=O)N[C@H](C)C(=O)O)CCCCC1)C(C)C [SEQ ID NO: 57, Sar-Arg-Val-Tyr-cyHex-His-Pro-D-Ala] | < 101% | > 3.2 nM | > 3.16 nM | – | – | – | – | – | – | < 105% | > 3.2 nM | > 3.16 nM | Inactive | Inactive | Inactive | Inactive
4 | CC[C@H](C)[C@@H](C(=O)N[C@@H](Cc1c[nH]cn1)C(=O)N1CCC[C@H]1C(=O)N[C@@H](C)C(=O)O)N(C)C(=O)[C@H](Cc1ccc(O)cc1)NC(=O)[C@@H](NC(=O)[C@H](CCCNC(=N)N)NC(=O)CNC)C(C)C [SEQ ID NO: 58, Sar-Arg-Val-Tyr-NMeIle-His-Pro-Ala] | < 101% | > 3.2 nM | > 3.16 nM | > 0.6 nM | < 104% | > 0.631 nM | – | – | – | < 105% | > 3.2 nM | > 3.16 nM | – | – | Inactive | Inactive
5 | CNCC(=O)N[C@@H](CCCNC(=N)N)C(=O)N[C@H](C(=O)N[C@@H](Cc1ccc(O)cc1)C(=O)NC1(C(=O)N[C@@H](Cc2c[nH]cn2)C(=O)N2CCC[C@H]2C(=O)N[C@H](C)C(=O)O)CCCC1)C(C)C [SEQ ID NO: 59, Sar-Arg-Val-Tyr-cyPen-His-Pro-D-Ala] | < 101% | > 3.2 nM | > 3.16 nM | > 0.6 nM | < 104% | > 0.631 nM | – | – | – | < 105% | > 3.2 nM | > 3.16 nM | – | – | Inactive | Inactive
6 | CNCC(=O)N[C@@H](CCCNC(=N)N)C(=O)N[C@H](C(=O)N[C@@H](Cc1ccc(O)cc1)C(=O)N1CCC[C@H]1C(=O)N[C@@H](Cc1c[nH]cn1)C(=O)N1CCC[C@H]1C(=O)N[C@H](C)C(=O)O)C(C)C [SEQ ID NO: 60, Sar-Arg-Val-Tyr-Pro-His-Pro-D-Ala] (H-[Sar]RVYPHP[dA]-OH) | < 101% | > 3.2 nM | > 3.16 nM | > 0.6 nM | < 104% | > 0.631 nM | > 1.3 nM | < 103% | > 0.631 nM | < 105% | > 3.2 nM | > 3.16 nM | – | – | – | –
